Assay results taken from patent US5334583A (priority 1982, dated 1994).

What was measured:
Assay type in all cases: in vivo
[1] = tested on: Influenza B/Hong Kong/5/72; experiment: Survival of mice infected intranasally with lethal dose of Influenza B/Hong Kong/5/72; conditions: intranasal, day -7, 0.1 mg/kg single dose; control 30
Encephalomyocarditis = experiment: Survival of mice infected intranasally with lethal dose of Encephalomyocarditis virus; conditions: oral, control 30
Herpes Simplex 1/TUP = experiment: Survival of mice infected intranasally with lethal dose of Herpes Simplex 1/TUP; conditions: intranasal, day -7, 0.1 mg/kg single dose; control 20
Protocol: Groups of 30, 40 or 50 female MF-2f SPF mice each having a body weight of 14-16 g, or of 12-14 g in the case of tests with herpes simplex 1 viruses, are infected intranasally, under light anaesthesia using a mixture of equal parts of ether, ethanol and chloroform, with lethal doses (approximately LD80-90; number of plaque-forming units [PFU] see Table 1 ) of the undermentioned virus strains in the form of 0.05 ml in each case of a suspension of the viruses.
At the time indicated below (days) in relation to the day of infection, 10 or 20 of these mice are administered once (single dose) the quantities indicated in Table 1 of the active ingredient, the sodium salt of N-acetylmuramyl-L-alanyl-D-isoglutaminyl-L-alanine-2-(1,2-dipalmitoyl-sn-glycero-3-hydroxyphosphoryloxy)-ethylamide (compound I), in 0.05 ml or 0.1 ml of phosphate-buffered salt solution (PBS) or in 0.2 ml of a 0.05 % by weight solution of sodium carboxymethylcellulose in double-distilled water, by means of intranasal, intravenous or oral administration respectively, in the manner indicated in Table 1 .
The remainder of the above-mentioned mice, that is 20 or 30, serve as the control, that is to say they either receive no treatment or are given a placebo.
The intranasal administration of compound I is effected under light anaesthesia using a mixture of equal parts of diethyl ether, ethanol and chloroform.

Herpes Simplex 1/Virtue = experiment: Survival of mice infected intranasally with lethal dose of Herpes Simplex 1/Virtue; conditions: intranasal, day -7, 0.1 mg/kg single dose; control 40
[2] = tested on: Herpesvirus hominis 2/Angelotti; experiment: Topical chemotherapy of Herpes genitalis in guinea pigs, local symptoms; conditions: for Animals [%] with regression of symptoms of ≥ 66% on day 7 / Animals [%] with regression of symptoms of ≥ 66% on day 10 / Animals [%] with regression of symptoms of ≥ 66% on day 12 / Animals [%] with regression of symptoms of ≥ 66% on day 14 / Symptom-free animals [%] on day 10 / Symptom-free animals [%] on day 12 / Symptom-free animals [%] on day 14 / Symptom-free animals [%] on day 21: placebo 0, untreated 0; for Symptom-free animals [%] on day 34: placebo 0, untreated 20
Source text: The number indicated in the following Table of female albino guinea pigs of the Pirbright strain (150-180 g body weight) are infected intravaginally with ~10^4 PFU (plaque-forming units) of Herpesvirus hominis 2/Angelotti, cultivated in HEL (human embryonal lungs) cells, as described in B. Lukas et. al., Arch. ges. Virusforsch. 44, 153-155 (1974) .
At the time indicated in the following Table (the time difference in days in relation to the day of infection, - [minus] indicating a time before infection) the number N of guinea pigs indicated in Table 2 are treated intravaginally with a single dose of in each case 0.1 ml of a gel containing the concentration of compound I indicated in Table 2.
The gel without active ingredient has the following composition:
2.25 % sodium carboxymethylcellulose (Hercules, USA)
made up to 100 % with bi-distilled water.
The effect of the treatment can be seen in Table 2.
The symptoms occurring in untreated animals are described in B. Lukas et al., Arch. Virol. 49, 1-11 (1975) .

vaccinal virus IHD = experiment: Tail lesions in mice infected intravenously with vaccinal virus IHD; conditions: 1 mg/kg oral; for Number of tail lesions (mean ± standard deviation) on day +7 / Number of tail lesions (mean ± standard deviation) on day +9: control 4.3 ± 1.9; for Number of tail lesions (mean ± standard deviation) on day +12: control 4.6 ± 1.8; for Number of tail lesions (mean ± standard deviation) on day +10: control 5.9 ± 1.9
Protocol: Groups of 20 female Tif:MF-2f (SPF) mice each having a body weight of 14-16 g are infected intravenously, under light anaesthesia using a mixture of equal parts of diethyl ether, ethanol and chloroform, with 2×10^3 PFU vaccinal virus IHD in the form of in each case 0.1 ml of a suspension of the virus in beef heart infusion broth.
10 of these mice from each of the above-mentioned groups are treated on the fourth or sixth day after infection, that is to say on day +4 or +6 (administration day), with a single oral administration of 1 mg/kg of compound I in 0.2 ml of a 0.05 % by weight aqueous solution of sodium carboxymethylcellulose.
The remaining 10 mice from each of the above-mentioned groups serve as the controls and receive a placebo.
On the seventh, ninth, tenth and twelfth day after infection the number of tail lesions in the mice is determined, this being carried out substantially as described by J. J. Boyle, R. F. Haff and R. C. Stewart in Antimicrobial Agents and Chemotherapy, 536-539 (1967), and it should be noted that the first tail lesions can be identified only on the sixth or seventh day.

[3] = 0.1 ml gel 0.1 % intravaginal, single dose day +4, N 13
[4] = 0.1 ml gel 0.1 % intravaginal, single dose day -7, N 14
[5] = 0.1 ml gel 1.0 % intravaginal, single dose day +4, N 14
[6] = 0.1 ml gel 1.0 % intravaginal, single dose day -7, N 14
[7] = single administration on day +4
[8] = single administration on day +6

CCCCCCCCCCCCCCCC(=O)OC[C@H](COP(=O)(O)OCCNC(=O)[C@H](C)NC(=O)CC[C@@H](NC(=O)[C@H](C)NC(=O)[C@@H](C)O[C@H]1[C@H](O)[C@@H](CO)OC(O)[C@@H]1NC(C)=O)C(N)=O)OC(=O)CCCCCCCCCCCCCCC (stereo partly drawn) [compound I, N-acetylmuramyl-L-alanyl-D-isoglutaminyl-L-alanine-2-(1,2-dipalmitoyl-sn-glycero-3-hydroxyphosphoryloxy)-ethylamide]
Percentage survivors [1]: 80%
Percentage survivors (Encephalomyocarditis; day +4, 1 mg/kg single dose): 90%
Percentage survivors (Encephalomyocarditis; day +4, 10 mg/kg single dose): 70%
Percentage survivors (Encephalomyocarditis; day +4, 100 mg/kg single dose): 100%
Percentage survivors (Herpes Simplex 1/TUP): 60%
Percentage survivors (Herpes Simplex 1/Virtue): 70%
Animals [%] with regression of symptoms of ≥ 66% on day 7 [2, 3]: 62%
Animals [%] with regression of symptoms of ≥ 66% on day 10 [2, 3]: 85%
Animals [%] with regression of symptoms of ≥ 66% on day 12 [2, 3]: 100%
Animals [%] with regression of symptoms of ≥ 66% on day 14 [2, 3]: 93%
Symptom-free animals [%] on day 10 [2, 3]: 70%
Symptom-free animals [%] on day 12 [2, 3]: 77%
Symptom-free animals [%] on day 14 [2, 3]: 85%
Symptom-free animals [%] on day 21 [2, 3]: 100%
Symptom-free animals [%] on day 34 [2, 3]: 100%
Animals [%] with regression of symptoms of ≥ 66% on day 7 [2, 4]: 21%
Animals [%] with regression of symptoms of ≥ 66% on day 10 [2, 4]: 57%
Animals [%] with regression of symptoms of ≥ 66% on day 12 [2, 4]: 86%
Animals [%] with regression of symptoms of ≥ 66% on day 14 [2, 4]: 100%
Symptom-free animals [%] on day 10 [2, 4]: 43%
Symptom-free animals [%] on day 12 [2, 4]: 64%
Symptom-free animals [%] on day 14 [2, 4]: 86%
Symptom-free animals [%] on day 21 [2, 4]: 86%
Symptom-free animals [%] on day 34 [2, 4]: 100%
Animals [%] with regression of symptoms of ≥ 66% on day 7 [2, 5]: 79%
Animals [%] with regression of symptoms of ≥ 66% on day 10 [2, 5]: 79%
Animals [%] with regression of symptoms of ≥ 66% on day 12 [2, 5]: 86%
Animals [%] with regression of symptoms of ≥ 66% on day 14 [2, 5]: 93%
Symptom-free animals [%] on day 10 [2, 5]: 36%
Symptom-free animals [%] on day 12 [2, 5]: 64%
Symptom-free animals [%] on day 14 [2, 5]: 79%
Symptom-free animals [%] on day 21 [2, 5]: 86%
Symptom-free animals [%] on day 34 [2, 5]: 100%
Animals [%] with regression of symptoms of ≥ 66% on day 7 [2, 6]: 29%
Animals [%] with regression of symptoms of ≥ 66% on day 10 [2, 6]: 79%
Animals [%] with regression of symptoms of ≥ 66% on day 12 [2, 6]: 71%
Animals [%] with regression of symptoms of ≥ 66% on day 14 [2, 6]: 93%
Symptom-free animals [%] on day 10 [2, 6]: 21%
Symptom-free animals [%] on day 12 [2, 6]: 57%
Symptom-free animals [%] on day 14 [2, 6]: 86%
Symptom-free animals [%] on day 21 [2, 6]: 86%
Symptom-free animals [%] on day 34 [2, 6]: 100%
Number of tail lesions (mean ± standard deviation) on day +7 (vaccinal virus IHD; [7]): 0.9 ± 0.7
Number of tail lesions (mean ± standard deviation) on day +9 (vaccinal virus IHD; [7]): 0.9 ± 0.9
Number of tail lesions (mean ± standard deviation) on day +12 (vaccinal virus IHD; [7]): 0.2 ± 0.4
Number of tail lesions (mean ± standard deviation) on day +10 (vaccinal virus IHD; [7]): 0.9 ± 1.4
Number of tail lesions (mean ± standard deviation) on day +7 (vaccinal virus IHD; [8]): 1.1 ± 1.4
Number of tail lesions (mean ± standard deviation) on day +9 (vaccinal virus IHD; [8]): 0.9 ± 1.6
Number of tail lesions (mean ± standard deviation) on day +12 (vaccinal virus IHD; [8]): 0.5 ± 1.0
Number of tail lesions (mean ± standard deviation) on day +10 (vaccinal virus IHD; [8]): 0.3 ± 0.7
